For this experiment, the target named is T1, BCL6 (Homo sapiens, UniProt P41182).
T1 construct: Endogenous BCL6 was tagged with the 11-amino acid SmBiT through CRISPR/Cas9 gene editing; endogenous in cells; host or cells: Su-DHL-4 cells, CRISPR/Cas9 knock-in single cell clone
Put plainly: HiBiT cellular degradation assay (Promega) in Su-DHL-4 cells. It is filed as cell-based. Particulars: concentration to reach 50% degradation; endogenous BCL6 tagged with SmBiT in Su-DHL-4 cells; 24 hr of compound treatment; relative to DMSO control. Here is the method: DC50 (concentration to reach 50% degradation) values were determined from a cellular degradation assay (HiBiT, Promega™) in Su-DHL-4 cells (Table 1). Endogenous BCL6 was tagged with the 11-amino acid SmBiT through CRISPR/Cas9 gene editing and single cell clone selection. After 24 hr of compound treatment, cells were lysed and incubated with LgBiT protein to reconstitute intact nanoluciferase. Substrate was then added and relative luciferase units were measured. Degradation levels for each treatment were taken as a percentage compared to the control, 100% DMSO (Prism).
(The HiBiT peptide binds its large partner to form an active luciferase.)

In turn, `CNC(=O)COc1cc2cc3cc(c2n(C)c1=O)OCCCC1CN(CC(C)C1(F)F)c1ncc(Cl)c(n1)N3` (centres unmarked) [Compound 1] displayed a 50% degradation concentration (DC50) of 1.9 nM.

The compound `CNC(=O)COc1cc2cc3cc(c2n(C)c1=O)OCCOC1CC(C)CN(C1)c1ncc(Cl)c(n1)N3` (centres unmarked) [Compound 2] displayed a DC50 of 0.34 nM.

With `CNC(=O)COc1cc2cc3cc(c2n(C)c1=O)OCCNC1CN(CC(C)C1(F)F)c1ncc(Cl)c(n1)N3` (centres unmarked) [Compound 3], it took 0.36 nM to reach half-maximal degradation (DC50).

`CNC(=O)COc1cc2cc3cc(c2n(C)c1=O)OCCC[C@@H]1CN(C[C@H](C)C1(F)F)c1ncc(Cl)c(n1)N3` [Compound 5, 2-(((1^3R, 1^5S)-2^5-Chloro-1^4, 1^4-difluoro-1^5,4^1-dimethyl-4^2-oxo-4^1,4^2-dihydro-5-oxa-3-aza-4(6,8)-quinolina-2(2,4)-pyrimidina-1 (1,3)-piperidinacyclooctaphane-4^3-yl)oxy)-N-methylacetamide] registered a DC50 of 150 nM.

As for `CNC(=O)COc1cc2cc3cc(c2n(C)c1=O)OCCO[C@H]1C[C@@H](C)CN(C1)c1ncc(Cl)c(n1)N3` [Compound 7, 2-(((1^3S, 1^5R)-2^5-chloro-1^5,4^1-dimethyl-4^2-oxo-4^1,4^2-dihydro-5,8-dioxa-3-aza-4(6,8)-quinolina-2(2,4)-pyrimidina-1 (1,3)-piperidinacyclooctaphane-4^3-yl)oxy)-N-methylacetamide], the half-maximal degradation concentration (DC50) was determined as 121 nM.

`C[C@@H]1CN2C[C@H](CCCOc3cc(cc4c3n(C)c(=O)n4CCC(C)(C)O)Nc3nc2ncc3Cl)C1(F)F` [Compound 10, (1^3S,1^5R)-2^5-chloro-1^4,1^4-difluoro-4^1-(3-hydroxy-3-methylbutyl)-1^5,4^3-dimethyl-4^2, 4^3-dihydro-4^1H-5-oxa-3-aza-4(6,4)-benzo[d]imidazola-2(2,4)-pyrimidina-1 (1,3)-piperidinacyclooctaphan-4^2-one] returned a 50% degradation concentration (DC50) of 11 nM.

With `C[C@H]1CN2C[C@@H](CCCOc3cc(cc4c3n(C)c(=O)n4CCC(C)(C)O)Nc3nc2ncc3Cl)C1(F)F` [Compound 11, (1^3R, 1^5S)-2^5-Chloro-1^4, 1^4-difluoro-4^1-(3-hydroxy-3-methylbutyl)-1^5,4^3-dimethyl-4^2,4^3-dihydro-4^1H-5-oxa-3-aza-4(6,4)-benzo[d]imidazola-2(2,4)-pyrimidina-1 (1,3)-piperidinacyclooctaphan-4^2-one], the half-maximal degradation concentration (DC50) was above 400 nM.

Consider `C[C@H]1C[C@@H]2CN(C1)c1ncc(Cl)c(n1)Nc1cc(c3c(c1)n(CCC(C)(C)O)c(=O)n3C)OCCO2` [Compound 12, (1^3R, 1^5S)-2^5-chloro-4^1-(3-hydroxy-3-methylbutyl)-1^5,4^3-dimethyl-4^2,4^3-dihydro-4^1H-5,8-dioxa-3-aza-4(6,4)-benzo[d]imidazola-2(2,4)-pyrimidina-1 (1,3)-piperidinacyclooctaphan-4^2-one], for which the 50% degradation concentration (DC50) worked out at 2 nM.

In turn, `C[C@@H]1C[C@H]2CN(C1)c1ncc(Cl)c(n1)Nc1cc(c3c(c1)n(CCC(C)(C)O)c(=O)n3C)OCCO2` [Compound 13, (1^3S,1^5R)-2^5-chloro-4^1-(3-hydroxy-3-methylbutyl)-1^5,4^3-dimethyl-4^2,4^3-dihydro-4^1H-5,8-dioxa-3-aza-4(6,4)-benzo[d]imidazola-2(2,4)-pyrimidina-1 (1,3)-piperidinacyclooctaphan-4^2-one] yielded a DC50 above 400 nM.

`C[C@@H]1CN2C[C@H](NCCOc3cc(cc4c3n(C)c(=O)n4CCC(C)(C)O)Nc3nc2ncc3Cl)C1(F)F` [Compound 14, (1^3S,1^5R)-2^5-chloro-1^4,1^4-difluoro-4^1-(3-hydroxy-3-methylbutyl)-1^5,4^3-dimethyl-4^2,4^3-dihydro-41 H-5-oxa-3,8-diaza-4(6,4)-benzo[d]imidazola-2(2,4)-pyrimidina-1 (1,3)-piperidinacyclooctaphan-4^2-one] gave a DC50 of 2.9 nM.

Turning to `C[C@H]1CN2C[C@@H](NCCOc3cc(cc4c3n(C)c(=O)n4CCC(C)(C)O)Nc3nc2ncc3Cl)C1(F)F` [Compound 15, (1^3R, 1^5S)-2^5-chloro-1^4,1^4-difluoro-4^1-(3-hydroxy-3-methylbutyl)-1^5,4^3-dimethyl-4^2,4^3-dihydro-41 H-5-oxa-3,8-diaza-4(6,4)-benzo[d]imidazola-2(2,4)-pyrimidina-1 (1,3)-piperidinacyclooctaphan-4^2-one], half-maximal degradation (DC50) was put at 82 nM.

`C[C@H]1C[C@@H]2CN(C1)c1ncc(Cl)c(n1)Nc1cc(c3c(c1)n(CCC(C)(C)O)c(=O)n3C)OCCN2` [Compound 16, (1^3R, 1^5S)-2^5-Chloro-4^1-(3-hydroxy-3-methylbutyl)-1^5,4^3-dimethyl-4^2,4^3-dihydro-41 H-5-oxa-3,8-diaza-4(6,4)-benzo[d]imidazola-2(2,4)-pyrimidina-1 (1,3)-piperidinacyclooctaphan-4^2-one]: it took 2.4 nM to reach half-maximal degradation (DC50).

In turn, `C[C@@H]1C[C@H]2CN(C1)c1ncc(Cl)c(n1)Nc1cc(c3c(c1)n(CCC(C)(C)O)c(=O)n3C)OCCN2` [Compound 17, (1^3S,1^5R)-2^5-Chloro-4^1-(3-hydroxy-3-methylbutyl)-1^5,4^3-dimethyl-4^2,4^3-dihydro-41 H-5-oxa-3,8-diaza-4(6,4)-benzo[d]imidazola-2(2,4)-pyrimidina-1 (1,3)-piperidinacyclooctaphan-4^2-one] showed a DC50 of 33 nM.

As to `C[C@@H]1CN2C[C@H](CCCOc3cc(cc4c3n(C)c(=O)c(=O)n4C[C@H]3C[C@H](O)C3)Nc3nc2ncc3Cl)C1(F)F` [Compound 18-1, (1^3S,1^5R)-2^5-Chloro-1^4,1^4-difluoro-4^1-(((1r,3S)-3-hydroxycyclobutyl)methyl)-1^5,4^4-dimethyl-4^1,4^2,4^3,4^4-tetrahydro-5-oxa-3-aza-4(7,5)-quinoxalina-2(2,4)-pyrimidina-1 (1,3)-piperidinacyclooctaphane-4^2,4^3-dione], the DC50 is 31 nM.

As for `C[C@@H]1CN2C[C@H](CCCOc3cc(cc4c3n(C)c(=O)c(=O)n4C[C@H]3C[C@@H](O)C3)Nc3nc2ncc3Cl)C1(F)F` [Compound 18-2], it took 4.4 nM to reach half-maximal degradation (DC50).

The compound `C[C@H]1CN2C[C@@H](CCCOc3cc(cc4c3n(C)c(=O)c(=O)n4C[C@H]3C[C@H](O)C3)Nc3nc2ncc3Cl)C1(F)F` [Compound 19-1, (1^3R, 1^5S)-2^5-Chloro-1^4, 1^4-difluoro-4^1-(((1r, 3R)-3-hydroxycyclobutyl)methyl)-1^5, 4^4-dimethyl-4^1,4^2,4^3,4^4-tetrahydro-5-oxa-3-aza-4(7,5)-quinoxalina-2(2,4)-pyrimidina-1 (1,3)-piperidinacyclooctaphane-4^2,4^3-dione] returned a half-maximal degradation concentration (DC50) above 400 nM.

In turn, `C[C@H]1CN2C[C@@H](CCCOc3cc(cc4c3n(C)c(=O)c(=O)n4C[C@H]3C[C@@H](O)C3)Nc3nc2ncc3Cl)C1(F)F` [Compound 19-2, (1^3R, 1^5S)-2^5-chloro-1^4,1^4-difluoro-4^1-(((1s,3S)-3-hydroxycyclobutyl)methyl)-1^2,4^4-dimethyl-4^2,4^2,4^3,4^4-tetrahydro-5-oxa-3-aza-4(7,5)-quinoxalina-2(2,4)-pyrimidina-1 (1,3)-piperidinacyclooctaphane-4^2,4^3-dione] gave a 50% degradation concentration (DC50) above 400 nM.

The compound `C[C@@H]1CN2C[C@H](CCCOc3cc(cc4[nH]c(=O)c(=O)n(C)c34)Nc3nc2ncc3Cl)C1(F)F` [Compound 28, (1^3S,1^3R)-2^5-Chloro-1^4,1^4-difluoro-1^5,4^4-dimethyl-41, 42, 43,44-tetrahydro-5-oxa-3-aza-4(7,5)-quinoxalina-2(2,4)-pyrimidina-1 (1,3)-piperidinacyclooctaphane-4^2,4^3-dione] returned a DC50 of 22 nM.

`C[C@@H]1CN2C[C@H](CCCOc3cc(cc4c3n(C)c(=O)n4C)Nc3nc2ncc3Cl)C1(F)F` [Compound 29, (1^3S,1^5R)-2^5-chloro-1^4,1^4-difluoro-1^5,4^14^3-trimethyl-4^2,4^3-dihydro-4^1H-5-oxa-3-aza-4(6,4)-benzo[d]imidazola-2(2,4)-pyrimidina-1 (1,3)-piperidinacyclooctaphan-4^2-one] yielded a half-maximal degradation concentration (DC50) of 76 nM.

As to `C[C@H]1CN2C[C@@H](CCCOc3cc(cc4c3n(C)c(=O)n4C)Nc3nc2ncc3Cl)C1(F)F` [Compound 30, (1^3R155)-2^5-chloro-1^4,1^4-difluoro-1^5,4^14^3-trimethyl-4^2,4^3-dihydro-4^1H-5-oxa-3-aza-4(6,4)-benzo[d]imidazola-2(2,4)-pyrimidina-1 (1,3)-piperidinacyclooctaphan-4^2-one], the half-maximal degradation concentration (DC50) is above 400 nM.

As to `C[C@@H]1CN2C[C@H](NCCOc3cc(cc4[nH]c(=O)n(C)c34)Nc3nc2ncc3Cl)C1(F)F` [Compound 31, (1^3S,1^5R)-2^5-chloro-1^4,1^4-difluoro-1^5,4^3-dimethyl-4^2,4^3-dihydro-4^1H-5-oxa-3,8-diaza-4(6,4)-benzo[d]imidazola-2(2,4)-pyrimidina-1 (1,3)-piperidinacyclooctaphan-4^2-one], it took 7.5 nM to reach half-maximal degradation (DC50).

Take `C[C@H]1CN2C[C@@H](NCCOc3cc(cc4[nH]c(=O)n(C)c34)Nc3nc2ncc3Cl)C1(F)F` [Compound 32, (1^3R, 1^5S)-2^5-chloro-1^4,1^4-difluoro-1^5,4^3-dimethyl-4^2,4^3-dihydro-4^1H-5-oxa-3,8-diaza-4(6,4)-benzo[d]imidazola-2(2,4)-pyrimidina-1 (1,3)-piperidinacyclooctaphan-4^2-one]: the 50% degradation concentration (DC50) is above 400 nM.

Take `C[C@@H]1CN2C[C@H](OCCOc3cc(cc4c3n(C)c(=O)n4CCC(C)(C)O)Nc3nc2ncc3Cl)C1(F)F` [Compound 33, (1^3S,1^5R)-2^5-Chloro-1^4, 1^4-difluoro-4^1-(3-hydroxy-3-methylbutyl)-1^5,4^3-dimethyl-4^2,4^3-dihydro-4^1H-5,8-dioxa-3-aza-4(6,4)-benzo[d]imidazola-2(2,4)-pyrimidina-1 (1,3)-piperidinacyclooctaphan-4^2-one]: the 50% degradation concentration (DC50) came out at 1.9 nM.

As usually defined, the DC50 is the concentration giving 50% degradation. Low values mean a more potent degrader, high ones a less potent degrader.

The record behind these values is patent US20260159527A1, “MACROCYCLIC BCL6 DEGRADERS” (DANA-FARBER CANCER INSTITUTE, INC., priority 2022, published 2026).
